Data from US12649734B2, “Bioavailable protein disulfide isomerase inhibitors” (THE CLEVELAND CLINIC FOUNDATION, priority 2020, dated 2026).

Legend:
MM1.S-luc = experiment: Chou and Talalay drug combination test with BTZ; type: cell-based, human; settings: combined with BTZ; lower dose range affecting 70% of myeloma cells or less
Description: Cell vi-ability and LD50 for inhibitors were measured in 96 well culture plates (2×10^4 cells/well) after 72 h of treatment using CellTiter-Glo® Luminescent Cell Viability Assay (Promega, Madison, WI, USA). (A) Cell survival assay with MM1.S.luc and BTZ-resistant MM1.S.luc cells. […] (C) Comparison of PDIA1 protein levels in MM1.S.luc and MM1.S.luc BTZ-resistant cells. Band intensity was calculated with Image Lab Version 5.2.1. (D) Cell survival assay with 5TGM1.luc and (E) BTZ-resistant 5TGM1.luc cells. (F) MM1.S cell line was exposed to CCF642-34, and BTZ for 72 h for synergistic drug combination test according to Chou and Talalay method. If the […] remained less than 1, the two drugs were determined as synergistic. […] The number of colony-forming units were plotted for each treatment.

MM1.S cells = experiment: ER stress response and apoptosis markers by immunoblotting; type: cell-based, human; settings: 3 μM, 4 h
Description: FIGS. 6A-6C provide graphs and images showing PDIA1 inhibition by CCF642 analogues induce acute endoplasmic reticulum (ER) stress response and lead to apoptosis. Multiple myeloma cells (MM1.S) were treated with 3 μM of CCF642, -34, -37, -39, -34-A, and Tunicamycin (as a control). The status of ER sensors (XBP-1S, IRE1α oligomerization, and induction of C/EBP homology protein (CHOP)) along with apoptosis markers (cleaved caspase 3 and PARP1) were monitored. (A) MM1.S cells were treated for 4 h with CCF642 and its indicated analogues. (B) MM1.S cells were treated with CCF642-34 in a time course. (C) MM1.S, MM1.S.luc, and BTZ-resistant MM1.S.luc cells were stained with the H2DCFDA ROS detection and then treated with 2.5 μM CCF642-34 up to 4 h.
Immunoblotting: Immunoblotting was performed as described previously (Dallas et al., Blood, 93, 1697-1706 (1999)) using primary antibodies against PDIA1 (Cat #3501), XBP1-S (Cat #12782); IRE1α (Cat #3294), C/EBP homologous protein (CHOP) (Cat #5554), Caspase-3 (Cat #9665), PARP1 (Cat #9542), and GAPDH (Cat #3683) purchased from Cell Signaling Technology, Inc. (Danvers, MA, USA) and used at 1:1000 dilution, unless mentioned otherwise.

[1] = Stability in acidic conditions (6 N HCl); type: physicochemical; settings: 3 h
Description: To evaluate pharmacological properties of CCF642-34, the stability in acidic conditions (6 N HCl) and upon exposure to human liver microsomes was tested. […] It was therefore concluded that CCF642-34 may be orally bioavailable and effective against MM in vivo.

PDIA1 = PDIA1 (Homo sapiens, UniProt P07237); experiment: Target validation in cells with biotinylated analogues (streptavidin blot, pull down, LCMS); type: cell-based; settings: streptavidin blot and pull down of treated MM1.S cells
Sequence of PDIA1 (P07237 18-508): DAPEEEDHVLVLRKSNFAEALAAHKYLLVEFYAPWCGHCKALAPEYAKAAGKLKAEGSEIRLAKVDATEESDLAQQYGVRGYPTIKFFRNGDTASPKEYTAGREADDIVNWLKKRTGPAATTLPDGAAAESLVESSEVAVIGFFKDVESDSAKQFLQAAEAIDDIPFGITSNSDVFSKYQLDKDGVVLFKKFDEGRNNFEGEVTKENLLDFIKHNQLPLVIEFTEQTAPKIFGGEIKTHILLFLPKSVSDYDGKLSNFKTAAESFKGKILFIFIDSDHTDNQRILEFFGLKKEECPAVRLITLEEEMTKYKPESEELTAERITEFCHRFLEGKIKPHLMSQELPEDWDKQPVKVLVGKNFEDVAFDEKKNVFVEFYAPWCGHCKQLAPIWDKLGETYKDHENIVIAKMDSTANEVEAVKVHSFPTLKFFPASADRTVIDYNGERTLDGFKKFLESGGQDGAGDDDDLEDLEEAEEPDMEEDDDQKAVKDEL
Description: FIGS. 4A-4G provide graphs and images showing that model-based design improves potency and selectivity of protein disulfide isomerase A1 (PDIA1) inhibitors. (A) Ribbon diagram of CCF642-34 docked onto PDIA1. (B) Two-dimensional structure of modified CCF642 pharmacophore, where R represents amino acids tryptophan, tyrosine, phenylalanine, histidine, proline, or alanine. (C) PDIA1/PH4B activity assay was performed in the absence or presence of CCF642 or (D) CCF642-34. In time-dependent inhibition of di-E-GSSG, reduction was monitored for 1 h by the increase in fluorescence, and the relative fluorescence unit was plotted as a function of time. (E-F) The observed rate constant for inhibition, kobs, at each concentration determined from the slope of kinetic data presented in panel C and D. The kobs values are re-plotted against inhibitor concentration and fitted to a hyperbolic equation, kobs=k2[I]/(Ki+[I]), to obtain values for Ki and k2 in GraphPad Prism v8.0.2. The concentration of drug is indicated on each curve, for (E) 642 and (F) CCF642-34. (G) Target validation. […]
Mass spectrometry: Tryptic peptide mixtures were analyzed by online LC-coupled tandem mass spectrometry (LCMS/MS) on an Orbitrap mass spectrometer (Thermo Fisher) as described previously. […] A peak list was created for each analyzed fraction (i.e., gel slice) and individual Sequest searches were performed for each fraction. […]

NC(CC1CNc2ccccc21)C(=O)NCCCOc1ccc(N2C(=O)/C(=C/c3ccc([N+](=O)[O-])s3)SC2=S)cc1 (stereo not shown) [CCF642-34]
combination index (CI) (MM1.S-luc): below 1 | ER stress response (induction of XBP-1S and CHOP) (MM1.S cells): induced a robust ER stress response | compound recovered after exposure to acid [1]: greater than 80% | binding selectivity in MM1.S cells (PDIA1): remarkable selectivity for PDIA1
